# Reference: ChEMBL document CHEMBL1201862, “PubChem BioAssay data set” (2004)
#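 Protocol summary: plate cells (96-well), add compound at 5 concentrations, incubate 48 h, interpolate endpoints linearly. GI50 marks 50% less growth.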 The source made the active and inactive calls. Cut-off read from the data, not from the text of the source: active = GI50 up to about 1.1 µM and inactive = higher.
# Tests used:
# Experiment in all cases: NCI anticancer screen, dose series, 48 h
# OVCAR-4 = system: OVCAR-4
# HT-29 = system: HT-29
# DMS-273 = system: DMS-273
# MOLT-4 = system: MOLT-4
# SF-295 = system: SF-295
# HL-60 = system: HL-60
# SF-268 = system: SF-268
# NCI-H226 = system: NCI-H226
# CCRF-CEM = system: CCRF-CEM
# SK-OV-3 = system: SK-OV-3
# COLO 205 = system: COLO 205
# M14 = system: M14
# 786-0 = system: 786-0
# OVCAR-3 = system: OVCAR-3
# A549 = system: A549
# U-251 = system: U-251
# UACC-257 = system: UACC-257
# SN12C = system: SN12C
# NCI-H23 = system: NCI-H23
# HCT-116 = system: HCT-116
# EKVX = system: EKVX
# IGROV-1 = system: IGROV-1
# HOP-18 = system: HOP-18
# SNB-19 = system: SNB-19
# RPMI-8226 = system: RPMI-8226
# ACHN = system: ACHN
# Malme-3M = system: Malme-3M
# SK-MEL-28 = system: SK-MEL-28
# XF498 = system: XF498
# HOP-92 = system: HOP-92
# K562 = system: K562
# UO-31 = system: UO-31
# SNB-78 = system: SNB-78
# OVCAR-8 = system: OVCAR-8
# DMS-114 = system: DMS-114
# SNB-75 = system: SNB-75
# LXFL 529 = system: LXFL 529
# SF-539 = system: SF-539
# OVCAR-5 = system: OVCAR-5
# UACC-62 = system: UACC-62
# TK-10 = system: TK-10
# KM12 = system: KM12
# A498 = system: A498
# KM-20L2 = system: KM-20L2
# CAKI-1 = system: CAKI-1
# NCI-H522 = system: NCI-H522
# SW-620 = system: SW-620
# LOX IMVI = system: LOX IMVI
# HCC 2998 = system: HCC 2998
# SK-MEL-5 = system: SK-MEL-5
# HOP-62 = system: HOP-62
# SR = system: SR
# M19-MEL = system: M19-MEL
# DLD-1 = system: DLD-1
smiles,measurement,setting,value
[O-][S+](Cc1ccccn1)c1nc2ccccc2nc1-c1ccccc1 (stereo not drawn),GI50,OVCAR-4,26.9 µM (inactive)
same,GI50,HT-29,44.4 µM (inactive)
same,GI50,DMS-273,26.1 µM (inactive)
same,GI50,MOLT-4,38.3 µM (inactive)
same,GI50,SF-295,27.9 µM (inactive)
same,GI50,HL-60,20.8 µM (inactive)
same,GI50,SF-268,66.1 µM (inactive)
same,GI50,NCI-H226,18.9 µM (inactive)
same,GI50,CCRF-CEM,38.6 µM (inactive)
same,GI50,SK-OV-3,55.7 µM (inactive)
same,GI50,COLO 205,18.8 µM (inactive)
same,GI50,M14,36 µM (inactive)
same,GI50,786-0,47.2 µM (inactive)
same,GI50,OVCAR-3,44.9 µM (inactive)
same,GI50,A549,47.2 µM (inactive)
same,GI50,U-251,41.5 µM (inactive)
same,GI50,UACC-257,33.1 µM (inactive)
same,GI50,SN12C,35.3 µM (inactive)
same,GI50,NCI-H23,34.8 µM (inactive)
same,GI50,HCT-116,33.4 µM (inactive)
same,GI50,EKVX,30.7 µM (inactive)
same,GI50,IGROV-1,36 µM (inactive)
same,GI50,HOP-18,80.4 µM (inactive)
same,GI50,SNB-19,62.4 µM (inactive)
same,GI50,RPMI-8226,19.9 µM (inactive)
same,GI50,ACHN,48.1 µM (inactive)
same,GI50,Malme-3M,33.1 µM (inactive)
same,GI50,SK-MEL-28,53.8 µM (inactive)
same,GI50,XF498,17.5 µM (inactive)
same,GI50,HOP-92,28.3 µM (inactive)
same,GI50,K562,31.3 µM (inactive)
same,GI50,UO-31,37.7 µM (inactive)
same,GI50,SNB-78,21.2 µM (inactive)
same,GI50,OVCAR-8,26.5 µM (inactive)
same,GI50,DMS-114,28.2 µM (inactive)
same,GI50,SNB-75,26.3 µM (inactive)
same,GI50,LXFL 529,31.9 µM (inactive)
[O-][S+](Cc1cnc2ccccc2c1)c1nc2ccccc2nc1-c1cccs1 (stereo not drawn),GI50,OVCAR-4,10.5 µM (inactive)
same,GI50,HT-29,16.6 µM (inactive)
same,GI50,DMS-273,13.7 µM (inactive)
same,GI50,MOLT-4,4.94 µM (inactive)
same,GI50,SF-295,25.5 µM (inactive)
same,GI50,HL-60,4.31 µM (inactive)
same,GI50,SF-268,16.1 µM (inactive)
same,GI50,NCI-H226,0.43 µM (active)
same,GI50,CCRF-CEM,5.08 µM (inactive)
same,GI50,SK-OV-3,29.2 µM (inactive)
same,GI50,COLO 205,19.5 µM (inactive)
same,GI50,M14,15.1 µM (inactive)
same,GI50,786-0,13.2 µM (inactive)
same,GI50,OVCAR-3,19.7 µM (inactive)
same,GI50,A549,19.7 µM (inactive)
same,GI50,U-251,18.7 µM (inactive)
same,GI50,UACC-257,16 µM (inactive)
same,GI50,SN12C,14.5 µM (inactive)
same,GI50,NCI-H23,14.9 µM (inactive)
same,GI50,HCT-116,10.6 µM (inactive)
same,GI50,EKVX,6.31 µM (inactive)
same,GI50,IGROV-1,16.8 µM (inactive)
same,GI50,HOP-18,17.5 µM (inactive)
same,GI50,SNB-19,22.4 µM (inactive)
same,GI50,SF-539,17.9 µM (inactive)
same,GI50,RPMI-8226,25.4 µM (inactive)
same,GI50,ACHN,13.6 µM (inactive)
same,GI50,Malme-3M,19.2 µM (inactive)
same,GI50,OVCAR-5,13.5 µM (inactive)
same,GI50,SK-MEL-28,16.9 µM (inactive)
same,GI50,XF498,4.06 µM (inactive)
same,GI50,HOP-92,11.2 µM (inactive)
same,GI50,K562,7.46 µM (inactive)
same,GI50,UO-31,14.8 µM (inactive)
same,GI50,SNB-78,20.3 µM (inactive)
same,GI50,OVCAR-8,17.5 µM (inactive)
same,GI50,DMS-114,10.5 µM (inactive)
same,GI50,SNB-75,19.1 µM (inactive)
same,GI50,LXFL 529,8.55 µM (inactive)
CCCCCCCCCCCCCC(=O)OCC1OC(=O)C(O)C1O (stereo not drawn),GI50,UACC-62,> 100 µM (inactive)
same,GI50,OVCAR-4,> 100 µM (inactive)
same,GI50,HT-29,> 100 µM (inactive)
same,GI50,MOLT-4,> 100 µM (inactive)
same,GI50,SF-295,88.7 µM (inactive)
same,GI50,HL-60,> 100 µM (inactive)
same,GI50,SF-268,> 100 µM (inactive)
same,GI50,TK-10,> 100 µM (inactive)
same,GI50,NCI-H226,> 100 µM (inactive)
same,GI50,CCRF-CEM,> 100 µM (inactive)
same,GI50,SK-OV-3,> 100 µM (inactive)
same,GI50,COLO 205,> 100 µM (inactive)
same,GI50,KM12,> 100 µM (inactive)
same,GI50,A498,> 100 µM (inactive)
same,GI50,M14,> 100 µM (inactive)
same,GI50,KM-20L2,> 100 µM (inactive)
same,GI50,CAKI-1,> 100 µM (inactive)
same,GI50,786-0,> 100 µM (inactive)
same,GI50,OVCAR-3,> 100 µM (inactive)
same,GI50,A549,> 100 µM (inactive)
same,GI50,U-251,> 100 µM (inactive)
same,GI50,UACC-257,> 100 µM (inactive)
same,GI50,NCI-H522,> 100 µM (inactive)
same,GI50,SN12C,> 100 µM (inactive)
same,GI50,SW-620,> 100 µM (inactive)
same,GI50,NCI-H23,> 100 µM (inactive)
same,GI50,HCT-116,> 100 µM (inactive)
same,GI50,EKVX,> 100 µM (inactive)
same,GI50,LOX IMVI,> 100 µM (inactive)
same,GI50,IGROV-1,> 100 µM (inactive)
same,GI50,HCC 2998,> 100 µM (inactive)
same,GI50,HOP-18,> 100 µM (inactive)
same,GI50,SNB-19,> 100 µM (inactive)
same,GI50,SF-539,> 100 µM (inactive)
same,GI50,RPMI-8226,> 100 µM (inactive)
same,GI50,ACHN,> 100 µM (inactive)
same,GI50,Malme-3M,> 100 µM (inactive)
same,GI50,SK-MEL-5,> 100 µM (inactive)
same,GI50,OVCAR-5,> 100 µM (inactive)
same,GI50,SK-MEL-28,> 100 µM (inactive)
same,GI50,XF498,> 100 µM (inactive)
same,GI50,HOP-62,> 100 µM (inactive)
same,GI50,SR,> 100 µM (inactive)
same,GI50,HOP-92,> 100 µM (inactive)
same,GI50,K562,73.8 µM (inactive)
same,GI50,M19-MEL,> 100 µM (inactive)
same,GI50,UO-31,> 100 µM (inactive)
same,GI50,OVCAR-8,> 100 µM (inactive)
same,GI50,DMS-114,> 100 µM (inactive)
same,GI50,SNB-75,> 100 µM (inactive)
same,GI50,LXFL 529,> 100 µM (inactive)
same,GI50,DLD-1,> 100 µM (inactive)
